Patent publication US20240238422A1 (Osprey Biopharmaceuticals, Inc., priority 2021, published 2024)

Columns and labels:
human CD22 = target: T1, human CD22 (Homo sapiens, UniProt P20273); test: SPR binding of synthetic Siglec ligands to human CD22 ectodomain (Biacore 8K+); settings: for Human Siglec-2 Binding Affinity: grade in words for the conjugatable Siglec ligand-linker
T1 construct: Fc (human CD22-Fc fusion); purchased R&D Systems AV11968-050
Method: (§1) The following ligands were evaluated for mouse and human CD22 binding: 1) BPC-Neu5Gc PEG (Cpd. No. 26463), 2) BPC-Neu5Gc GAL (Cpd. No. 26339), 3) MPB-Neu5Ac PEG (Cpd. No. 26334), 4) MPB-Neu5Ac GAL (Cpd. No. 26409), 5) Neu5Gc PEG (Cpd. No. 26591). All tested compounds are alkyne-terminating precursors of PFP-terminating, conjugatable Siglec Linker structures used in conjugates in the following examples.
(§2) Binding assays for synthetic CD22 ligand binding to CD22 receptor ectodomain were run on a Biacore 8K+ instrument (Cytiva). Surface preparation for CD22 conjugates binding to human or mouse CD22 protein consisted of two steps, covalent immobilization of streptavidin followed by capture of Avi-tagged and biotinylated human CD22-Fc fusion (R&D Systems, Cat #AV11968-050) and a mono-Fc fusion of mouse CD22. Using standard amine coupling protocols, Streptavidin (Invitrogen, Cat #: 434301) was immobilized to a Cytiva CM5 chip (Cytiva, Cat #BR100530) by injecting at 100 ug/mL in Sodium Acetate, pH 4.5 (Cytiva, Cat #BR100350) on both flow cells, yielding a final response of 2500 RU. Capture of biotinylated mono Fc human CD22 was performed on channels 1-4 and mouse CD22 on channels 5-8 on the active flow cell (2) and the reference flow cell (1) was kept as unmodified streptavidin to account for any non-specific binding. Human CD22 or mouse CD22 (mono-Fc fusion, 5 μg/mL) was injected on the active flow cell (2) for 90 seconds at 5 μL/min, yielding about 210 RU of captured constructs.
(§3) Binding experiments of Siglec-ligand conjugated proteins were performed on the surfaces prepared above in HBS-EP+ (10 mM HEPES, 150 mM NaCl, 3 mM EDTA, 0.05% Tween-20, pH 7.5) as the running buffer. Conjugates were serially diluted 1:1 in running buffer from 1 μM to 31.25 nM and injected over both the reference and active flow cells for 90 seconds at 30 μL/min. The conjugates were then allowed to dissociate from the surface for 300 seconds. No regeneration was required as the conjugates completely dissociated from the surface after 30 seconds.

mouse CD22 = target: T2, mouse CD22 (Mus musculus, UniProt P35329); test: SPR binding of synthetic Siglec ligands to mouse CD22 ectodomain (Biacore 8K+); settings: for Mouse Siglec-2 Binding Affinity: grade in words for the conjugatable Siglec ligand-linker
T2 construct: synthetic Siglec ligands for recombinant human and mouse CD22 ectodomains
T2 sequence (P35329 22-708 limits assumed): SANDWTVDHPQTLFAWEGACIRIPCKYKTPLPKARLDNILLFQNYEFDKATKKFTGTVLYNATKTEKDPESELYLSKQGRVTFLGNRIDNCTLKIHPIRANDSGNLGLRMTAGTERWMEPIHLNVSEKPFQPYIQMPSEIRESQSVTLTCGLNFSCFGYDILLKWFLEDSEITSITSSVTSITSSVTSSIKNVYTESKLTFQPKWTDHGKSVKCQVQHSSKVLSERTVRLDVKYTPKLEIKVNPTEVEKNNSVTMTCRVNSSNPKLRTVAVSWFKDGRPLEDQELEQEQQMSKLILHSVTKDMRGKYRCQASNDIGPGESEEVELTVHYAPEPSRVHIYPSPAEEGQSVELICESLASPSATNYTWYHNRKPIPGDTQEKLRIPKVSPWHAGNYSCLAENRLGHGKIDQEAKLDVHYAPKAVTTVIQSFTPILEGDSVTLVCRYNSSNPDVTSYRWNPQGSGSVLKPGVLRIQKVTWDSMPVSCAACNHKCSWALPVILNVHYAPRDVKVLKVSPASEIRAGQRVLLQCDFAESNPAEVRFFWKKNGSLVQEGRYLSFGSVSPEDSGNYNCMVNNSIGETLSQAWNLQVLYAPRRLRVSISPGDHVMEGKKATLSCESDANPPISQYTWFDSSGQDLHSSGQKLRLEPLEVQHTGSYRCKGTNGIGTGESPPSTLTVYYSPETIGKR
Method: as §1, §2, §3

T1 sequence (P20273 20-687 limits assumed): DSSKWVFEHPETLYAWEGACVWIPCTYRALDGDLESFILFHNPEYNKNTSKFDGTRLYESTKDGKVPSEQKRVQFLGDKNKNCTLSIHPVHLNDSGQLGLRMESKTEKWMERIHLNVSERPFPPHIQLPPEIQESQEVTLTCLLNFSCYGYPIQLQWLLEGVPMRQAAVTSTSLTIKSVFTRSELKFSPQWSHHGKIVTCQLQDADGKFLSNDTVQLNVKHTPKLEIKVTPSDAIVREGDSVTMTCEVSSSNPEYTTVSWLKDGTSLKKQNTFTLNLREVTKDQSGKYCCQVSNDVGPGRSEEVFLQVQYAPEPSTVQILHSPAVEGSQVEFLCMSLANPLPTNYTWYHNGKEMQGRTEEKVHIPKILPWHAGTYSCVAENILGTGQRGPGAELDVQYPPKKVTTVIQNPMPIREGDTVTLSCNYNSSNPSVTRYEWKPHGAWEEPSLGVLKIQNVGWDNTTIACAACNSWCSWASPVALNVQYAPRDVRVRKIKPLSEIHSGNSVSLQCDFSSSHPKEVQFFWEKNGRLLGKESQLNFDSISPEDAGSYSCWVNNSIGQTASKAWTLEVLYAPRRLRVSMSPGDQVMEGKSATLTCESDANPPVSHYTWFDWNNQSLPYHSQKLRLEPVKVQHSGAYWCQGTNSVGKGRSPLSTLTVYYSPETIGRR

Compound: O=C(Cc1ccc(-c2ccccc2)cc1)NC[C@@H](O)[C@@H](O)[C@@H]1O[C@@](OC[C@H]2O[C@@H](OCCc3cn(CCOCCOCCOCCOCCC(=O)Oc4c(F)c(F)c(F)c(F)c4F)nn3)[C@H](O)[C@@H](O)[C@H]2O)(C(=O)O)C[C@H](O)[C@H]1NC(=O)CO [Cpd. No. 26415, (2R,4S,5R,6R)-6-((1R,2R)-3-(2-([1,1′-biphenyl]-4-yl)acetamido)-1,2-dihydroxypropyl)-4-hydroxy-5-(2-hydroxyacetamido)-2-(((2R,3R,4S,5R,6R)-3,4,5-trihydroxy-6-(2-(1-(15-oxo-15-(perfluorophenoxy)-3,6,9,12-tetraoxapentadecyl)-1H-1,2,3-triazol-4-yl)ethoxy)tetrahydro-2H-pyran-2-yl)methoxy)tetrahydro-2H-pyran-2-carboxylic acid]
- Human Siglec-2 Binding Affinity (human CD22): Strong
- Mouse Siglec-2 Binding Affinity (mouse CD22): Strong

Compound: O=C(CO)N[C@H]1[C@H]([C@H](O)[C@H](O)CO)O[C@@](OCCOCCOCc2cn(CCOCCOCCOCCOCCC(=O)Oc3c(F)c(F)c(F)c(F)c3F)nn2)(C(=O)O)C[C@@H]1O [Cpd. No. 26614, (2R,4S,5R,6R)-4-hydroxy-5-(2-hydroxyacetamido)-2-(2-(2-((1-(15-oxo-15-(perfluorophenoxy)-3,6,9,12-tetraoxapentadecyl)-1H-1,2,3-triazol-4-yl)methoxy)ethoxy)ethoxy)-6-((1R,2R)-1,2,3-trihydroxypropyl)tetrahydro-2H-pyran-2-carboxylic acid]
- Human Siglec-2 Binding Affinity (human CD22): Weak
- Mouse Siglec-2 Binding Affinity (mouse CD22): Weak

Compound: CC(=O)N[C@H]1[C@H]([C@H](O)[C@H](O)CNC(=O)c2cccc(Oc3ccccc3)c2)O[C@@](OC[C@H]2O[C@@H](OCCc3cn(CCOCCOCCC(=O)NCCCC[C@H](NC(=O)CCCNC(=O)CCOCCOCCn4cc(CCO[C@@H]5O[C@H](CO[C@]6(C(=O)O)C[C@H](O)[C@@H](NC(C)=O)[C@H]([C@H](O)[C@H](O)CNC(=O)c7cccc(Oc8ccccc8)c7)O6)[C@H](O)[C@H](O)[C@H]5O)nn4)C(=O)NCCOCCOCCOCCOCCC(=O)Oc4c(F)c(F)c(F)c(F)c4F)nn3)[C@H](O)[C@@H](O)[C@H]2O)(C(=O)O)C[C@@H]1O (mixture of isomers) [Cpd. No. 26468]
- Human Siglec-2 Binding Affinity (human CD22): Strong
- Mouse Siglec-2 Binding Affinity (mouse CD22): V. weak

Compound: C#CCCO[C@@H]1O[C@H](CO[C@]2(C(=O)O)C[C@H](O)[C@@H](NC(=O)CO)[C@H]([C@H](O)[C@H](O)CNC(=O)Cc3ccc(-c4ccccc4)cc3)O2)[C@H](O)[C@H](O)[C@H]1O
- Kd (human CD22; SPR, alkyne-terminating precursors of the PFP linkers, read-out: Human Siglec-2 Binding Affinity): 2.5 µM
- Kd (mouse CD22; SPR, alkyne-terminating precursors of the PFP linkers, read-out: Mouse Siglec-2 Binding Affinity): 17.2 µM

Compound: O=C(CCOCCOCCn1cc(COCCOCCO[C@]2(C(=O)O)C[C@H](O)[C@@H](NC(=O)CO)[C@H]([C@H](O)[C@H](O)CO)O2)nn1)NCCCC[C@@H](CN[C@@H](CCCCNC(=O)CCOCCOCCn1cc(COCCOCCO[C@]2(C(=O)O)C[C@H](O)[C@@H](NC(=O)CO)[C@H]([C@H](O)[C@H](O)CO)O2)nn1)C(=O)NCCOCCOCCOCCOCCC(=O)Oc1c(F)c(F)c(F)c(F)c1F)NC(=O)CCCNCCCOCCOCCn1cc(COCCOCCO[C@]2(C(=O)O)C[C@H](O)[C@@H](NC(=O)CO)[C@H]([C@H](O)[C@H](O)CO)O2)nn1 [Cpd. No. 26616]
- Human Siglec-2 Binding Affinity (human CD22): Weak
- Mouse Siglec-2 Binding Affinity (mouse CD22): Weak

Compound: O=C(CCOCCOCCn1cc(COCCOCCO[C@]2(C(=O)O)C[C@H](O)[C@@H](NC(=O)CO)[C@H]([C@H](O)[C@H](O)CNC(=O)Cc3ccc(-c4ccccc4)cc3)O2)nn1)NCCCC[C@H](NC(=O)CCCNC(=O)CCOCCOCCn1cc(COCCOCCO[C@]2(C(=O)O)C[C@H](O)[C@@H](NC(=O)CO)[C@H]([C@H](O)[C@H](O)CNC(=O)Cc3ccc(-c4ccccc4)cc3)O2)nn1)C(=O)N[C@@H](CCCCNC(=O)CCOCCOCCn1cc(COCCOCCO[C@]2(C(=O)O)C[C@H](O)[C@@H](NC(=O)CO)[C@H]([C@H](O)[C@H](O)CNC(=O)Cc3ccc(-c4ccccc4)cc3)O2)nn1)C(=O)NCCOCCOCCOCCOCCC(=O)Oc1c(F)c(F)c(F)c(F)c1F [Cpd. No. 26477]
- Human Siglec-2 Binding Affinity (human CD22): Strong
- Mouse Siglec-2 Binding Affinity (mouse CD22): Strong

Compound: O=C(CCOCCOCCn1cc(COCCOCCOCCOCCO)nn1)NCCCC[C@@H](NC(=O)CCCNC(=O)CCOCCOCCn1cc(COCCOCCOCCOCCO)nn1)C(=O)NCCOCCOCCOCCOCCC(=O)Oc1c(F)c(F)c(F)c(F)c1F [Cpd. No. 26532, perfluorophenyl (R)-1-(4-(13-hydroxy-2,5,8,11-tetraoxatridecyl)-1H-1,2,3-triazol-1-yl)-16-(4-(3-(2-(2-(4-(13-hydroxy-2,5,8,11-tetraoxatridecyl)-1H-1,2,3-triazol-1-yl)ethoxy)ethoxy)propanamido)butyl)-9,14,17-trioxo-3,6,21,24,27,30-hexaoxa-10,15,18-triazatritriacontan-33-oate]
- Human Siglec-2 Binding Affinity (human CD22): No Binding
- Mouse Siglec-2 Binding Affinity (mouse CD22): No Binding

Compound: O=C(Cc1ccc(-c2ccccc2)cc1)NC[C@@H](O)[C@@H](O)[C@@H]1O[C@@](OCCOCCOCc2cn(CCOCCOCCOCCOCCC(=O)Oc3c(F)c(F)c(F)c(F)c3F)nn2)(C(=O)O)C[C@H](O)[C@H]1NC(=O)CO [Cpd. No. 26288, (2R,4S,5R,6R)-6-((1R,2R)-3-(2-([1,1′-biphenyl]-4-yl)acetamido)-1,2-dihydroxypropyl)-4-hydroxy-5-(2-hydroxyacetamido)-2-(2-(2-((1-(15-oxo-15-(perfluorophenoxy)-3,6,9,12-tetraoxapentadecyl)-1H-1,2,3-triazol-4-yl)methoxy)ethoxy)ethoxy)tetrahydro-2H-pyran-2-carboxylic acid]
- Human Siglec-2 Binding Affinity (human CD22): Strong
- Mouse Siglec-2 Binding Affinity (mouse CD22): Strong

Compound: O=C(CCOCCOCCOCCOCCn1cc(COCCOCCOCCOCCO)nn1)Oc1c(F)c(F)c(F)c(F)c1F [Cpd. No. 26530, perfluorophenyl 1-(4-(13-hydroxy-2,5,8,11-tetraoxatridecyl)-1H-1,2,3-triazol-1-yl)-3,6,9,12-tetraoxapentadecan-15-oate]
- Human Siglec-2 Binding Affinity (human CD22): No Binding
- Mouse Siglec-2 Binding Affinity (mouse CD22): No Binding

Compound: CC(=O)N[C@H]1[C@H]([C@H](O)[C@H](O)CNC(=O)c2cccc(Oc3ccccc3)c2)O[C@@](OCCOCCOCc2cn(CCOCCOCCOCCOCCC(=O)Oc3c(F)c(F)c(F)c(F)c3F)nn2)(C(=O)O)C[C@@H]1O [Cpd. No. 24836, (2R,4S,5R,6R)-5-acetamido-6-((1R,2R)-1,2-dihydroxy-3-(3-phenoxybenzamido)propyl)-4-hydroxy-2-(2-(2-((1-(15-oxo-15-(perfluorophenoxy)-3,6,9,12-tetraoxapentadecyl)-1H-1,2,3-triazol-4-yl)methoxy)ethoxy)ethoxy)tetrahydro-2H-pyran-2-carboxylic acid]
- Human Siglec-2 Binding Affinity (human CD22): Strong
- Mouse Siglec-2 Binding Affinity (mouse CD22): V. weak

Compound: O=C(CCOCCOCCn1cc(COCCOCCO[C@]2(C(=O)O)C[C@H](O)[C@@H](NC(=O)CO)[C@H]([C@H](O)[C@H](O)CNC(=O)Cc3ccc(-c4ccccc4)cc3)O2)nn1)NCCCC[C@H](NC(=O)CCCNC(=O)CCOCCOCCn1cc(COCCOCCO[C@]2(C(=O)O)C[C@H](O)[C@@H](NC(=O)CO)[C@H]([C@H](O)[C@H](O)CNC(=O)Cc3ccc(-c4ccccc4)cc3)O2)nn1)C(=O)NCCOCCOCCOCCOCCC(=O)Oc1c(F)c(F)c(F)c(F)c1F [Cpd. No. 26475]
- Human Siglec-2 Binding Affinity (human CD22): Strong
- Mouse Siglec-2 Binding Affinity (mouse CD22): Strong
